The numbers were not newly measured in PubChem BioAssay AID1259409 (Chemical Carcinogenesis Research Information System (CCRIS), 2018), which cites them from elsewhere.

Molecules are shown by their SMILES.

This data set relates to rodent chemically induced tumor inhibition, incidence and multiplicity. Kind of data set: CCRIS tumor inhibitor studies.

In the case of `COc1c2ccoc2c(OC)c2oc(=O)ccc12`, the “tumour outcome (control, treated, inhibition, significance)” value is 30/30 (100%), 29/30 (97%), 3%, not significant (Carcinogen: 7,12-DIMETHYLBENZ[A]ANTHRACENE, 57-97-6, Dose [Inhibitor]: 0, 30 MG/KG BW TWICE AT 24 HR AND 2 HR PRIOR TO CARCINOGEN DOSE (STUDY DURATION: 18 WK), Route [Inhibitor]: GAVAGE, Species: MOUSE, Strain/Sex: SENCAR/FEMALE, Target Tissue: Type of Lesion: INTEGUMENTARY SYSTEM: SKIN PAPILLOMA, Dose [Carcinogen]: 10 NMOL IN 0.2 ML ACETONE ONCE, Promoter: 12-O-TETRADECANOYLPHORBOL-13-ACETATE, 16561-29-8); 30/30 (100%), 26/30 (86%), 14%, not significant (Carcinogen: 7,12-DIMETHYLBENZ[A]ANTHRACENE, 57-97-6, Dose [Inhibitor]: 0, 70 MG/KG BW TWICE AT 24 HR AND 2 HR PRIOR TO CARCINOGEN DOSE (STUDY DURATION: 18 WK), Route [Inhibitor]: GAVAGE, Species: MOUSE, Strain/Sex: SENCAR/FEMALE, Target Tissue: Type of Lesion: INTEGUMENTARY SYSTEM: SKIN PAPILLOMA, Dose [Carcinogen]: 10 NMOL IN 0.2 ML ACETONE ONCE, Promoter: 12-O-TETRADECANOYLPHORBOL-13-ACETATE, 16561-29-8); 30/30 (100%), 23/30 (78%), 22%, p< 0.006 (Carcinogen: 7,12-DIMETHYLBENZ[A]ANTHRACENE, 57-97-6, Dose [Inhibitor]: 0, 150 MG/KG BW TWICE AT 24 HR AND 2 HR PRIOR TO CARCINOGEN DOSE (STUDY DURATION: 18 WK), Route [Inhibitor]: GAVAGE, Species: MOUSE, Strain/Sex: SENCAR/FEMALE, Target Tissue: Type of Lesion: INTEGUMENTARY SYSTEM: SKIN PAPILLOMA, Dose [Carcinogen]: 10 NMOL IN 0.2 ML ACETONE ONCE, Promoter: 12-O-TETRADECANOYLPHORBOL-13-ACETATE, 16561-29-8); 30/30 (100%), 28/30 (93%), 7%, not significant (Carcinogen: 7,12-DIMETHYLBENZ[A]ANTHRACENE, 57-97-6, Dose [Inhibitor]: 0, 400 NMOL IN 0.2 ML ACETONE ONCE 5 MIN PRIOR TO CARCINOGEN DOSE (STUDY DURATION: 18 WK), Route [Inhibitor]: DERMAL, Species: MOUSE, Strain/Sex: SENCAR/FEMALE, Target Tissue: Type of Lesion: INTEGUMENTARY SYSTEM: SKIN PAPILLOMA, Dose [Carcinogen]: 10 NMOL IN 0.2 ML ACETONE ONCE, Promoter: 12-O-TETRADECANOYLPHORBOL-13-ACETATE, 16561-29-8); 30/30 (100%), 27/30 (90%), 10%, not significant (Carcinogen: 7,12-DIMETHYLBENZ[A]ANTHRACENE, 57-97-6, Dose [Inhibitor]: 0, 800 NMOL IN 0.2 ML ACETONE ONCE 5 MIN PRIOR TO CARCINOGEN DOSE (STUDY DURATION: 18 WK), Route [Inhibitor]: DERMAL, Species: MOUSE, Strain/Sex: SENCAR/FEMALE, Target Tissue: Type of Lesion: INTEGUMENTARY SYSTEM: SKIN PAPILLOMA, Dose [Carcinogen]: 10 NMOL IN 0.2 ML ACETONE ONCE, Promoter: 12-O-TETRADECANOYLPHORBOL-13-ACETATE, 16561-29-8); 30/30 (100%), 23/30 (77%), 23%, p< 0.002 (Carcinogen: 7,12-DIMETHYLBENZ[A]ANTHRACENE, 57-97-6, Dose [Inhibitor]: 0, 1600 NMOL IN 0.2 ML ACETONE ONCE 5 MIN PRIOR TO CARCINOGEN DOSE (STUDY DURATION: 18 WK), Route [Inhibitor]: DERMAL, Species: MOUSE, Strain/Sex: SENCAR/FEMALE, Target Tissue: Type of Lesion: INTEGUMENTARY SYSTEM: SKIN PAPILLOMA, Dose [Carcinogen]: 10 NMOL IN 0.2 ML ACETONE ONCE, Promoter: 12-O-TETRADECANOYLPHORBOL-13-ACETATE, 16561-29-8). The “tumour outcome (control, treated, inhibition, significance)” value (Carcinogen: 7,12-DIMETHYLBENZ[A]ANTHRACENE, 57-97-6, Dose [Inhibitor]: 0, 3200 NMOL IN 0.2 ML ACETONE ONCE 5 MIN PRIOR TO CARCINOGEN DOSE (STUDY DURATION: 18 WK), Route [Inhibitor]: DERMAL, Species: MOUSE, Strain/Sex: SENCAR/FEMALE, Target Tissue: Type of Lesion: INTEGUMENTARY SYSTEM: SKIN PAPILLOMA, Dose [Carcinogen]: 10 NMOL IN 0.2 ML ACETONE ONCE, Promoter: 12-O-TETRADECANOYLPHORBOL-13-ACETATE, 16561-29-8) is reported as 30/30 (100%), 27/30 (89%), 11%, not significant.
As to `COCC(=O)[C@@]1(OC(C)=O)CC[C@H]2[C@@H]3CCC4=CC(=O)CCC4=C3[C@@H](c3ccc(N(C)C)cc3)C[C@@]21C`, the “tumour outcome (control, treated, inhibition, significance)” value is, setting by setting: (Carcinogen: 7,12-Dimethylbenz(a)anthracene (57-97-6), Dose [Inhibitor]: 1 mg administered daily for 28 days, Route [Inhibitor]: Subcutaneous, Species: Rat, Strain/Sex: Sprague-Dawley/Female, Target Tissue: Type of Lesion: Mammary gland: Adenocarcinoma and papilliary carcinoma, Dose [Carcinogen]: 10 mg/kg once at 50 days of age, Promoter: None) 12/13 (92%), 9/11 (82%), 11%, ns; (Carcinogen: 7,12-Dimethylbenz(a)anthracene (57-97-6), Dose [Inhibitor]: 2 mg administered daily for 28 days, Route [Inhibitor]: Subcutaneous, Species: Rat, Strain/Sex: Sprague-Dawley/Female, Target Tissue: Type of Lesion: Mammary gland: Adenocarcinoma and papillary carcinoma, Dose [Carcinogen]: 10 mg/kg once at 50 days of age, Promoter: None) 12/13 (92%), 11/12 (92%), 0%, ns; (Carcinogen: 7,12-Dimethylbenz(a)anthracene (57-97-6), Dose [Inhibitor]: 2 mg administered daily for 28 days, Route [Inhibitor]: Subcutaneous, Species: Rat, Strain/Sex: Sprague-Dawley/Female, Target Tissue: Type of Lesion: Mammary gland: Adenocarcinoma and papillary carcinoma, Dose [Carcinogen]: 10 mg/kg once at 50 days of age, Promoter: Progesterone (57-83-0)) 12/13 (92%), 10/11 (91%), 0%, ns; (Carcinogen: 7,12-Dimethylbenz(a)anthracene (57-97-6), Dose [Inhibitor]: 10 mg administered daily for 28 days, Route [Inhibitor]: Subcutaneous, Species: Rat, Strain/Sex: Sprague-Dawley/Female, Target Tissue: Type of Lesion: Mammary gland: Adenocarcinoma and papillary carcinoma, Dose [Carcinogen]: 10 mg/kg once at 50 days of age, Promoter: None) 12/13 (92%), 10/11 (91%), 0%, ns; (Carcinogen: 7,12-Dimethylbenz(a)anthracene (57-97-6), Dose [Inhibitor]: 10 mg administered daily for 28 days, Route [Inhibitor]: Subcutaneous, Species: Rat, Strain/Sex: Sprague-Dawley/Female, Target Tissue: Type of Lesion: Mammary gland: Adenocarcinoma and papillary carcinoma, Dose [Carcinogen]: 10 mg/kg once at 50 days of age, Promoter: Progesterone (57-83-0)) 12/13 (92%), 10/12 (83%), 10%, ns.
As to `CS(=O)(=O)Nc1ccc([N+](=O)[O-])cc1OC1CCCCC1`, for the setting “Carcinogen: 4-METHYLNITROSAMINO)-1-(3-PYRIDYL)-1-BUTANONE, 64091-91-4, Dose [Inhibitor]: 0, 7 MMOL/KG BW/D IN DIET FOR DURATION OF STUDY BEGINNING 2 WK PRIOR TO CARCINOGEN TREATMENT (STUDY DURATION: 25 WK), Route [Inhibitor]: ORAL, Species: MOUSE, Strain/Sex: STRAIN-A/FEMALE, Target Tissue: Type of Lesion: LUNG: TUMOR, Dose [Carcinogen]: 2.2 MMOL/KG BW (TOTAL DOSE) ADMINISTERED IN DRINKING WATER FOR 7 WK, Promoter: NONE USED”, the “tumour outcome (control, treated, inhibition, significance)” value is reported as 29/29 (100%), 25/25 (100%), 0%, not significant.
